Assay results as given in patent US10253002B2, “Compounds and methods of treating infections” (Neoculi Pty Ltd., priority 2013, dated 2019).
Several values for one entry are separate records, joined by “and”; a condition that tells them apart may be missing. Equal values may be shown once.

Key:
Experiment in all cases: Broth microdilution MIC, Example 7 (NCL812 and analogues)
MRSA = assay type: cell-based, Staphylococcus aureus
Procedure, shortened: (§1)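 CLSI broth microdilution against two MRSA and two VRE strains, tested in duplicate with a third run if results differed by more than one two-fold dilution.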

VRE = assay type: cell-based, Enterococcus spp.
Procedure, shortened: as §1

Escherichia coli = assay type: cell-based; conditions: 24 hours
Pseudomonas aeruginosa = assay type: cell-based; conditions: 24 hours
[1] = MRSA 1, 24 hours, duplicate lines per compound
[2] = MRSA 2, 24 hours, duplicate lines per compound
[3] = VRE 1, 24 hours, duplicate lines per compound
[4] = VRE 2, 24 hours, duplicate lines per compound
[5] = E. coli, duplicate lines per compound
[6] = P. aeruginosa, duplicate lines per compound
[7] = isolate MRSA 1, 24 hours, 1st and 2nd replicate rows
[8] = isolate MRSA 2, 24 hours, 1st and 2nd replicate rows
[9] = isolate VRE 1, 24 hours, 1st and 2nd replicate rows
[10] = isolate VRE 2, 24 hours, 1st and 2nd replicate rows

| Structure (SMILES) | MIC (μg/ml) at 24 hours, MRSA 1 (MRSA; [1]) | MIC (μg/ml) at 24 hours, MRSA 2 (MRSA; [2]) | MIC (μg/ml) at 24 hours, VRE 1 (VRE; [3]) [µg/mL] | MIC (μg/ml) at 24 hours, VRE 2 (VRE; [4]) | MIC (μg/ml) at 24 hours, E. coli (Escherichia coli; [5]) [µg/mL] | MIC (μg/ml) at 24 hours, P. aeruginosa (Pseudomonas aeruginosa; [6]) [µg/mL] | further results |
| --- | --- | --- | --- | --- | --- | --- | --- |
| Cl.N=C(NN=Cc1cccnc1N)NN=Cc1cccnc1N [NCL 176] |  |  |  |  |  |  | MIC (μg/ml) at 24 hours, MRSA 1 (MRSA; MRSA 1, 24 hours): >128 µg/mL; MIC (μg/ml) at 24 hours, MRSA 2 (MRSA; MRSA 2, 24 hours): >128 µg/mL; MIC (μg/ml) at 24 hours, VRE 1 (VRE; VRE 1, 24 hours): >128 µg/mL; MIC (μg/ml) at 24 hours, VRE 2 (VRE; VRE 2, 24 hours): >128 µg/mL; MIC (μg/ml) at 24 hours, E. coli (Escherichia coli; E. coli): >128 µg/mL; MIC (μg/ml) at 24 hours, P. aeruginosa (Pseudomonas aeruginosa; P. aeruginosa): >128 µg/mL |
| Cc1ccc(/C=N/Nc2nc(N)nc(N/N=C/c3ccc(C)cc3)n2)cc1 [NCL206] |  |  |  |  |  |  | MIC (μg/ml) at 24 hours, MRSA 1 (MRSA; MRSA 1, 24 hours): >128 µg/mL; MIC (μg/ml) at 24 hours, MRSA 2 (MRSA; MRSA 2, 24 hours): >128 µg/mL; MIC (μg/ml) at 24 hours, VRE 1 (VRE; VRE 1, 24 hours): >128 µg/mL; MIC (μg/ml) at 24 hours, VRE 2 (VRE; VRE 2, 24 hours): >128 µg/mL; MIC (μg/ml) at 24 hours, E. coli (Escherichia coli; E. coli): >128 µg/mL; MIC (μg/ml) at 24 hours, P. aeruginosa (Pseudomonas aeruginosa; P. aeruginosa): >128 µg/mL |
| Cl.N=C(N/N=C/c1ccc(Cl)cc1)N/N=C/c1ccc(C(F)(F)F)cc1 [NCL077] | >128 µg/mL | >128 µg/mL | >128 | >128 µg/mL | >128 | >128 |  |
| COc1ccc(/C=N/NC(N)=O)cc1 [NCL058] |  |  |  |  |  |  | MIC (μg/ml) at 24 hours, MRSA 1 (MRSA; [7]): >128 µg/mL; MIC (μg/ml) at 24 hours, MRSA 2 (MRSA; [8]): >128 µg/mL; MIC (μg/ml) at 24 hours, VRE 1 (VRE; [9]): >128 µg/mL; MIC (μg/ml) at 24 hours, VRE 2 (VRE; [10]): >128 µg/mL; MIC (μg/ml) at 24 hours, E. coli (Escherichia coli; 1st and 2nd replicate rows): >128 µg/mL; MIC (μg/ml) at 24 hours, P. aeruginosa (Pseudomonas aeruginosa; 1st and 2nd replicate rows): >128 µg/mL |
| Cl.N=C(NN=Cc1ccoc1)NN=Cc1ccoc1 [NCL095] | >128 µg/mL | >128 µg/mL | >128 | >128 µg/mL | >128 | >128 |  |
| Cl.N#Cc1cccc(/C=N/NC(=N)N)c1 [NCL033] |  |  |  |  |  |  | MIC (μg/ml) at 24 hours, MRSA 1 (MRSA; [7]): >128 µg/mL; MIC (μg/ml) at 24 hours, MRSA 2 (MRSA; [8]): >128 µg/mL; MIC (μg/ml) at 24 hours, VRE 1 (VRE; [9]): >128 µg/mL; MIC (μg/ml) at 24 hours, VRE 2 (VRE; [10]): >128 µg/mL; MIC (μg/ml) at 24 hours, E. coli (Escherichia coli; 1st and 2nd replicate rows): >128 µg/mL; MIC (μg/ml) at 24 hours, P. aeruginosa (Pseudomonas aeruginosa; 1st and 2nd replicate rows): >128 µg/mL |
| NC(=O)N/N=C/c1ccc(F)cc1 [NCL056] |  |  |  |  |  |  | MIC (μg/ml) at 24 hours, MRSA 1 (MRSA; [7]): >128 µg/mL; MIC (μg/ml) at 24 hours, MRSA 2 (MRSA; [8]): >128 µg/mL; MIC (μg/ml) at 24 hours, VRE 1 (VRE; [9]): >128 µg/mL; MIC (μg/ml) at 24 hours, VRE 2 (VRE; [10]): >128 µg/mL; MIC (μg/ml) at 24 hours, E. coli (Escherichia coli; 1st and 2nd replicate rows): >128 µg/mL; MIC (μg/ml) at 24 hours, P. aeruginosa (Pseudomonas aeruginosa; 1st and 2nd replicate rows): >128 µg/mL |
| Clc1ccc(CNc2nnc(-c3ccc(Cl)cc3)[nH]2)cc1 [NCL092] | >128 µg/mL | >128 µg/mL | >128 | >128 µg/mL | >128 | >128 |  |
| CC(=NNC(=N)NN=C(C)c1ccccn1)c1ccccn1.Cl [NCL 172] |  |  |  |  |  |  | MIC (μg/ml) at 24 hours, MRSA 1 (MRSA; MRSA 1, 24 hours): 128 µg/mL; MIC (μg/ml) at 24 hours, MRSA 2 (MRSA; MRSA 2, 24 hours): 64 µg/mL; MIC (μg/ml) at 24 hours, VRE 1 (VRE; VRE 1, 24 hours): >128 µg/mL; MIC (μg/ml) at 24 hours, VRE 2 (VRE; VRE 2, 24 hours): >128 µg/mL; MIC (μg/ml) at 24 hours, E. coli (Escherichia coli; E. coli): >128 µg/mL; MIC (μg/ml) at 24 hours, P. aeruginosa (Pseudomonas aeruginosa; P. aeruginosa): >128 µg/mL |
| Cl.N=C(NN=Cc1cccc(O)c1O)NN=Cc1cccc(O)c1O [NCL101] | 32 µg/mL | 32 µg/mL | 64 | 128 µg/mL | >128 | >128 | activity against MRSA among analogues (MRSA; MIC testing, two MRSA strains): greatest activity; activity against VRE among analogues (VRE; MIC testing, two VRE strains): greatest activity |
| Cl.N#Cc1cccc(C=NNC(=N)NN=Cc2ccc(Cl)cc2)c1 [NCL086] | >128 µg/mL | >128 µg/mL | >128 | 128 µg/mL | >128 | >128 |  |
| Cl.N#Cc1ccccc1C=NNC(=N)NN=Cc1ccccc1C#N [NCL025] |  |  |  |  |  |  | MIC (μg/ml) at 24 hours, MRSA 1 (MRSA; [7]): >128 µg/mL; MIC (μg/ml) at 24 hours, MRSA 2 (MRSA; [8]): >128 µg/mL; MIC (μg/ml) at 24 hours, VRE 1 (VRE; [9]): >128 µg/mL; MIC (μg/ml) at 24 hours, VRE 2 (VRE; [10]): >128 µg/mL; MIC (μg/ml) at 24 hours, E. coli (Escherichia coli; 1st and 2nd replicate rows): >128 µg/mL; MIC (μg/ml) at 24 hours, P. aeruginosa (Pseudomonas aeruginosa; 1st and 2nd replicate rows): >128 µg/mL |

Further lines, with some results ahead:

| MIC (μg/ml) at 24 hours, MRSA 1 (MRSA; [1]) | MIC (μg/ml) at 24 hours, MRSA 2 (MRSA; [2]) | MIC (μg/ml) at 24 hours, VRE 1 (VRE; [3]) [µg/mL] | MIC (μg/ml) at 24 hours, VRE 2 (VRE; [4]) | MIC (μg/ml) at 24 hours, E. coli (Escherichia coli; [5]) [µg/mL] | MIC (μg/ml) at 24 hours, P. aeruginosa (Pseudomonas aeruginosa; [6]) [µg/mL] | Structure (SMILES) | further results |
| --- | --- | --- | --- | --- | --- | --- | --- |
| 32 µg/mL | 32 µg/mL | 8 | 32 µg/mL and 64 µg/mL | >128 | >128 | CCCc1ccc(C=NNC(=N)NN=Cc2ccc(CCC)cc2)cc1.Cl [NCL 121] |  |
| 32 µg/mL and 64 µg/mL | 128 µg/mL | 16 | 64 µg/mL | >128 | >128 | Cl.N=C(NN=Cc1ccc(OC(F)(F)F)cc1)NN=Cc1ccc(OC(F)(F)F)cc1 [NCL 160] |  |
| >128 µg/mL | >128 µg/mL | >128 | >128 µg/mL | >128 | >128 | Cl.N=C(NN=Cc1ccccc1[N+](=O)[O-])NN=Cc1ccccc1[N+](=O)[O-] [NCL102] |  |
| >128 µg/mL | >128 µg/mL | >128 | >128 µg/mL | >128 | >128 | Cl.Cl.Cl.N=C(NN=C(CN)c1ccccc1)NN=C(CN)c1ccccc1 [NCL 165] |  |
| >128 µg/mL | >128 µg/mL | >128 | >128 µg/mL | >128 | >128 | Cl.N=C(NN=Cc1ccccc1-c1ccccc1)NN=Cc1ccccc1-c1ccccc1 [NCL 116] |  |
| >128 µg/mL | >128 µg/mL | >128 | >128 µg/mL | >128 | >128 | Cl.N=C(NN=Cc1cnc2ccccc2n1)NN=Cc1cnc2ccccc2n1 [NCL 147] |  |
|  | 16 µg/mL and 32 µg/mL |  | 8 µg/mL and 16 µg/mL | >128 | >128 | CSc1ccc(C=NNC(=N)NN=Cc2ccc(SC)cc2)cc1.Cl [NCL 140] |  |
| >128 µg/mL | >128 µg/mL | >128 | >128 µg/mL | >128 | >128 | Cl.N=C(NN=Cc1cnc2ccccc2c1)NN=Cc1cnc2ccccc2c1 [NCL 139] |  |
| >128 µg/mL | >128 µg/mL | >128 | >128 µg/mL | >128 | >128 | Cl.N=C(N/N=C/c1ccc(O)cc1O)N/N=C/c1ccc(O)cc1O [NCL103] |  |
